In ChEMBL document CHEMBL1158136, “Ashwagandhanolide, a bioactive dimeric thiowithanolide isolated from the roots of Withania somnifera” (2006):

What was measured:
[1] = molecular target: Prostaglandin G/H synthase 1 (Homo sapiens) (UniProt P23219); assay: Inhibition of COX1 at 100 ug/mL
[2] = system: AGS; assay: Cytotoxicity against human AGS cells by MTT assay; type: functional
[3] = system: MCF7; assay: Cytotoxicity against human MCF7 cells by MTT assay; type: functional
[4] = system: SF-268; assay: Cytotoxicity against human SF-268 cells by MTT assay; type: functional
[5] = Cytotoxicity against human HCT 116 cells by MTT assay; type: functional
[6] = system: NCI-H460; assay: Cytotoxicity against human NCI-H460 cells by MTT assay; type: functional
[7] = molecular target: T1, Prostaglandin G/H synthase 2 (Homo sapiens) (UniProt P35354); assay: Inhibition of COX2 at 100 ug/mL
T1 sequence (whole entry): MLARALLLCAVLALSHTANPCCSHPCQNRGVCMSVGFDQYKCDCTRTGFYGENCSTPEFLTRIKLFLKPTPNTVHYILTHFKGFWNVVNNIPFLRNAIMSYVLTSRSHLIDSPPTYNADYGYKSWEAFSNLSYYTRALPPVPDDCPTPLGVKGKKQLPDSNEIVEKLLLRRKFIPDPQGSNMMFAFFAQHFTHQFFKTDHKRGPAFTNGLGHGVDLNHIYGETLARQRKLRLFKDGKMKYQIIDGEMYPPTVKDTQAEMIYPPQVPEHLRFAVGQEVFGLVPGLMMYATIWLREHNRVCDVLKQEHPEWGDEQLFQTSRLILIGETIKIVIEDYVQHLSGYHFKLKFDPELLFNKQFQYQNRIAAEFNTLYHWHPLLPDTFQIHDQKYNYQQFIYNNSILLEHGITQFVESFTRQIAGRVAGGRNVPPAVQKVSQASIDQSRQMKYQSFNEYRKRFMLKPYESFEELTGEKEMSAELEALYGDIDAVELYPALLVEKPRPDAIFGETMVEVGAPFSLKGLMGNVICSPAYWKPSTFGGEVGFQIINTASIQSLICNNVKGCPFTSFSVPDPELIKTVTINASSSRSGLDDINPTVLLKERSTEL

Sequence of Prostaglandin G/H synthase 1 (Homo sapiens) (P23219 whole entry): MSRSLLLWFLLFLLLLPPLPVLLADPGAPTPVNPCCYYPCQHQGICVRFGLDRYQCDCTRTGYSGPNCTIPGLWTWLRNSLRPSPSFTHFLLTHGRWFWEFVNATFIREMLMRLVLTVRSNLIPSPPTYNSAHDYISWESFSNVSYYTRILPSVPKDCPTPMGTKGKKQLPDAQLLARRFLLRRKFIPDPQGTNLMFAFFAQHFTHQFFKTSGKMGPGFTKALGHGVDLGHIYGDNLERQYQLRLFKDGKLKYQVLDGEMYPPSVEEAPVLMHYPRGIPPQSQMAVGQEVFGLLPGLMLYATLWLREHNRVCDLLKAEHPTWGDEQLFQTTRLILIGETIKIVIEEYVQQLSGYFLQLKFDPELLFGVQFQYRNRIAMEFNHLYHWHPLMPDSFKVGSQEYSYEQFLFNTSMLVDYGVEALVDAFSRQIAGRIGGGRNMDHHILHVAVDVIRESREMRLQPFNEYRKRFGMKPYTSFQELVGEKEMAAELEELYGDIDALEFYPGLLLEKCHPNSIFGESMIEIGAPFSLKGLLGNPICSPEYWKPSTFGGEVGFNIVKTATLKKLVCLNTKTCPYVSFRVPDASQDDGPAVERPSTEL

SMILES: CC1=C(CO)C(=O)O[C@@H]([C@@H](C)[C@H]2CC[C@H]3[C@@H]4C[C@H](S[C@H]5C[C@H]6[C@@H]7CC[C@H]([C@H](C)[C@H]8CC(C)=C(CO)C(=O)O8)[C@@]7(C)CC[C@@H]6[C@@]6(C)C(=O)C=C[C@H](O)[C@@]56O)[C@]5(O)[C@@H](O)C=CC(=O)[C@]5(C)[C@H]4CC[C@]23C)C1 [ASHWAGANDHANOLIDE]
- inhibition [1]: 65%
- IG50 [2]: 0.43 µg/mL
- IG50 [3]: 1.45 µg/mL
- IG50 [4]: 0.84 µg/mL
- IG50 [5]: 1.25 µg/mL
- IG50 [6]: 1.48 µg/mL
- inhibition [7]: 60%
